Here are results for 26 compounds from patent US20070293484A1, “Thiophene Heteroaryl Amines” (SUGEN, INC., priority 2004, published 2007).

Each structure is given as a SMILES string.

For one assay, the target named is T1, GST-Flk1 (Mus musculus, UniProt P35918).
T1 construct: GST-Flk1cd purified from sf9 recombinant baculovirus transformation (SUGEN, Inc.); host or cells: Sf9 insect cells (recombinant baculovirus)
Description: GST-FLK-1 bioassay (ELISA, tyrosine kinase activity on poly(glu,tyr)). It is filed as biochemical. Here is the method:
The assays described herein are performed in an ELISA (Enzyme-Linked Immunosorbent Sandwich Assay) format (Voller, et al., 1980, “Enzyme-Linked Immunosorbent Assay,” Manual of Clinical Immunology, 2d ed., Rose and Friedman, Am. Soc. Of Microbiology, Washington, D.C., pp. 359-371). The general procedure is as follows: a compound is introduced to cells expressing the test kinase, either naturally or recombinantly, for a selected period of time after which, if the test kinase is a receptor, a ligand known to activate the receptor is added. The cells are lysed and the lysate is transferred to the wells of an ELISA plate previously coated with a specific antibody recognizing the substrate of the enzymatic phosphorylation reaction. Non-substrate components of the cell lysate are washed away and the amount of phosphorylation on the substrate is detected with an antibody specifically recognizing phosphotyrosine compared with control cells that were not contacted with a test compound.
This assay analyzes the tyrosine kinase activity of GST-Flk1 on poly(glu,tyr) peptides.
• 1. Corning 96-well ELISA plates (Corning Catalog No. 5805-96). • 2. poly(glu,tyr) 4:1, lyophilizate (Sigma Catalog #P0275). • 3. Preparation of poly(glu,tyr)(pEY) coated assay plates: Coat 2 ug/well of poly(glu,tyr)(pEY) in 100 μL PBS, hold at room temperature for 2 hours or at 4° C. overnight. Cover plates well to prevent evaporation. • 4. PBS Buffer: for 1 L, mix 0.2 g KH2PO4, 1.15 g Na2HPO4, 0.2 g KCl and 8 g NaCl in approx. 900 ml dH2O. When all reagents have dissolved, adjust the pH to 7.2 with HCl. Bring total volume to 1 L with dH2O. • 5. PBST Buffer: to 1 L of PBS Buffer, add 1.0 ml Tween-20. • 6. TBB—Blocking Buffer: for 1 L, mix 1.21 g TRIS, 8.77 g NaCl, 1 ml TWEEN-20 in approximately 900 ml dH2O. Adjust pH to 7.2 with HCl. Add 10 g BSA, stir to dissolve. Bring total volume to 1 L with dH2O. Filter to remove particulate matter. • 7. 1% BSA in PBS: To make a 1× working solution, add 10 g BSA to approx. 990 ml PBS buffer, stir to dissolve. Adjust total volume to 1 L with PBS buffer, filter to remove particulate matter. • 8. 50 mM Hepes pH 7.5. • 9. GST-Flk1cd purified from sf9 recombinant baculovirus transformation (SUGEN, Inc.). • 10. 4% DMSO in dH2O. • 11. 10 mMATP in dH2O. • 12. 40 mM MnCl2 • 13. Kinase Dilution Buffer (KDB): mix 10 ml Hepes (pH 7.5), 1 ml 5M NaCl, 40 μL 100 mM sodium orthovanadate and 0.4 ml of 5% BSA in dH2O with 88.56 ml dH2O. • 14. NUNC 96-well V bottom polypropylene plates, Applied Scientific Catalog #AS-72092 • 15. EDTA: mix 14.12 g ethylenediaminetetraacetic acid (EDTA) to approx. 70 ml dH2O. Add 10 N NaOH until EDTA dissolves. Adjust pH to 8.0. Adjust total volume to 100 ml with dH2O. • 16. 1^0 Antibody Dilution Buffer: mix 10 ml of 5% BSA in PBS buffer with 89.5 ml TBST. • 17. Anti-phosphotyrosine monoclonal antibody conjugated to horseradish peroxidase (PY99 HRP, Santa Cruz Biotech). • 18. 2,2′-Azinobis(3-ethylbenzthiazoline-6-sulfonic acid (ABTS, Moss, Cat. No. ABST). • 19. 10% SDS. Procedure: • 1. Coat Corning 96-well ELISA plates with 2 μg of polyEY peptide in sterile PBS as described in step 3 of Materials and Reagents. • 2. Remove unbound liquid from wells by inverting plate. Wash once with TBST. Pat the plate on a paper towel to remove excess liquid. • 3. Add 100 μl of 1% BSA in PBS to each well. Incubate, with shaking, for 1 hr. at room temperature. • 4. Repeat step 2. • 5. Soak wells with 50 mM HEPES (pH7.5) (150 μl/well). • 6. Dilute test compound with dH2O/4% DMSO to 4 times the desired final assay concentration in 96-well polypropylene plates. • 7. Add 25 μl diluted test compound to ELISA plate. In control wells, place 25 μl of dH2O/4% DMSO. • 8. Add 25 μl of 40 mM MnCl2 with 4×ATP (2 μM) to each well. • 9. Add 25 μl 0.5M EDTA to negative control wells. • 10. Dilute GST-Flk1 to 0.005 μg (5 ng)/well with KDB. • 11. Add 50 μl of diluted enzyme to each well. • 12. Incubate, with shaking, for 15 minutes at room temperature. • 13. […]
For orientation: An ELISA detects its analyte on a solid surface through an enzyme-linked reagent.

The target of the next assay is T2, PDGFR (Homo sapiens, UniProt P09619).
T2 construct: SUGEN, Inc; host or cells: NIH 3T3 cell lysate; receptor captured on plate with monoclonal anti-PDGFR antibody 28D4C10
The assay is described as follows: PDGFR bioassay (ELISA, in vitro kinase activity). It counts as biochemical. As to conditions: PDGFR-β expressing NIH 3T3 cell lysate; read-out: IC50 (μM) PDGF-R.

T1 sequence (P35918 784-1345 limits assumed): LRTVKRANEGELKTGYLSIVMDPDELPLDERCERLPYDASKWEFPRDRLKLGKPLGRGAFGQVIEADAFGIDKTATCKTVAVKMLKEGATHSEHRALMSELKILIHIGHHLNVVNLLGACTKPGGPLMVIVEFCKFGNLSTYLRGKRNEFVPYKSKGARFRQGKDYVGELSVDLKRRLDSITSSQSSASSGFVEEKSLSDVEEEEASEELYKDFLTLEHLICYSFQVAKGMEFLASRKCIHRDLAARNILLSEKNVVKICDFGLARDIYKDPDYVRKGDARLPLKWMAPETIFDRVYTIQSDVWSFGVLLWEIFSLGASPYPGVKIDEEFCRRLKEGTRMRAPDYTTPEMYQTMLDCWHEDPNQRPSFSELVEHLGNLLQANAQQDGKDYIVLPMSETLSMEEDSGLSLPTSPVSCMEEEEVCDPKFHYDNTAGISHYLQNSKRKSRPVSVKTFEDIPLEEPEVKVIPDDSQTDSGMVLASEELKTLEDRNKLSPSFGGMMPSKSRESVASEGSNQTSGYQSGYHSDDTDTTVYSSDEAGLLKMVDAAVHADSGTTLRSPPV
T2 sequence (P09619 33-1106, species assumed): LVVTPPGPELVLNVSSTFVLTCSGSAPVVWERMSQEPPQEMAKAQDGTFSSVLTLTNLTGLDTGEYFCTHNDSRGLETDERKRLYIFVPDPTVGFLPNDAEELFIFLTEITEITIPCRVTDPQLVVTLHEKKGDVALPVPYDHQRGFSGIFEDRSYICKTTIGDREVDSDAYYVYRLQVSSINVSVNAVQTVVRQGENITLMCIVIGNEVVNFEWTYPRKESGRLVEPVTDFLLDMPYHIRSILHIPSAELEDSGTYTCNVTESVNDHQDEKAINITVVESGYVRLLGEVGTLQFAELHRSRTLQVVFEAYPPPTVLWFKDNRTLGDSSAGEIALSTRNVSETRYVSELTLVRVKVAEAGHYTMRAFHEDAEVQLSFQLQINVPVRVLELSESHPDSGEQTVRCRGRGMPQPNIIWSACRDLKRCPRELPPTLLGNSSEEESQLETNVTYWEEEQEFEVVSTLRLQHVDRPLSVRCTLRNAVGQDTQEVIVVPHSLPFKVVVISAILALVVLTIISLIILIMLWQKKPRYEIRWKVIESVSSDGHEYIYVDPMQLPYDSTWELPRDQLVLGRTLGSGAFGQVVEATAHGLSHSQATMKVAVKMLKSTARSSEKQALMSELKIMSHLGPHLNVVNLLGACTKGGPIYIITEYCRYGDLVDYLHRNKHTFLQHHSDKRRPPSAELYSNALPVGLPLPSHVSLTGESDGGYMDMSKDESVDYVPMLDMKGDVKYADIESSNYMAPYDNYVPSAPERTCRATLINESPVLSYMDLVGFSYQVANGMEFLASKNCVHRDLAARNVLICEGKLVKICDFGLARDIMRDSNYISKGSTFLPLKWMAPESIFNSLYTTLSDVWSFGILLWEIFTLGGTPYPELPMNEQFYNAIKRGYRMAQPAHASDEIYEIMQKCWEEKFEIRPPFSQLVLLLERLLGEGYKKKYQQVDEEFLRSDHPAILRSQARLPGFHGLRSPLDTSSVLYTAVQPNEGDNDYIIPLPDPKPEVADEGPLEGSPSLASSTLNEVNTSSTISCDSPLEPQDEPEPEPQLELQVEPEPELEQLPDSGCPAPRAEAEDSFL

The IC50 is the concentration that inhibits the measured activity by half. With `Oc1ccc(Nc2ncc(-c3ccsc3)cn2)cc1` [Example 1, 4-[(5-thien-3-ylpyrimidin-2-yl)amino]phenol], the results for the IC50 against GST-Flk1 and at PDGFR were 4.5 µM and 0.52 µM, respectively.

As for `CC(=O)Nc1ccc(Nc2ncc(-c3ccsc3)cn2)cc1` [Example 2, N-{4-[(5-thien-3-ylpyrimidin-2-yl)amino]phenyl}acetamide], the IC50 against GST-Flk1 came to 3.74 µM; on PDGFR, 0.07 µM.

On to `c1cc(-c2cnc(Nc3ccc(N4CCOCC4)cc3)nc2)cs1` [Example 3, N-(4-morpholin-4-ylphenyl)-5-thien-3-ylpyrimidin-2-amine], for which the values for the IC50 against GST-Flk1 and at PDGFR were greater than 20 µM and 0.15 µM, respectively.

Regarding `Nc1ccc(C(=O)Nc2ccc(Nc3ncc(-c4ccsc4)cn3)cc2)cc1` [Example 4, 4-amino-N-{4-[(5-thien-3-ylpyrimidin-2-yl)amino]phenyl}benzamide], the IC50 was greater than 20 µM on GST-Flk1 and 0.5 µM at PDGFR.

As for `COc1ccc(Nc2ncc(-c3ccsc3)cn2)cc1` [Example 5, N-(4-methoxyphenyl)-5-thien-3-ylpyrimidin-2-amine], the IC50 was greater than 20 µM against GST-Flk1 and 0.55 µM at PDGFR.

For the compound `Nc1cccc(Nc2ncc(-c3ccsc3)cn2)c1` [Example 6, N-(5-thien-3-ylpyrimidin-2-yl)benzene-1,3-diamine], the results for the IC50 against GST-Flk1 and at PDGFR were 1.53 µM and 0.06 µM, respectively.

Turning to `O=C(O)c1cccc(Nc2ncc(-c3ccsc3)cn2)c1` [Example 7, 3-[(5-thien-3-ylpyrimidin-2-yl)amino]benzoic acid], the IC50 turned out to be 16.2 µM at GST-Flk1 and 7.39 µM at PDGFR.

As for `Nc1ccc(Nc2ncc(-c3ccsc3)cn2)cc1` [Example 8, N-(5-thien-3-ylpyrimidin-2-yl)benzene-1,4-diamine], the IC50 on GST-Flk1 is 4.14 µM; on PDGFR, 0.55 µM.

Regarding `COc1ccc(NC(=O)Nc2ncc(-c3ccsc3)cn2)cc1` [Example 9, N-(4-methoxyphenyl)-N′-(5-thien-3-ylpyrimidin-2-yl)urea], the IC50 on GST-Flk1 and on PDGFR was greater than 20 µM throughout.

Regarding `O=C(Nc1ccc(F)cc1)Nc1ncc(-c2ccsc2)cn1` [Example 10, N-(4-fluorophenyl)-N′-(5-thien-3-ylpyrimidin-2-yl)urea], the IC50 at GST-Flk1 and at PDGFR was greater than 20 µM each time.

With `CN1CCN(Cc2ccc(C(=O)Nc3cccc(Nc4ncc(-c5ccsc5)cn4)c3)cc2)CC1` [Example 11, 4-[(4-methylpiperazin-1-yl)methyl]-N-{3-[(5-thien-3-ylpyrimidin-2-yl)amino]phenyl}benzamide], the results for the IC50 on GST-Flk1 and on PDGFR were 0.73 µM and 0.22 µM, respectively.

For the compound `CN1CCN(Cc2ccc(C(=O)Nc3ccc(Nc4ncc(-c5ccsc5)cn4)cc3)cc2)CC1` [Example 12, 4-[(4-methylpiperazin-1-yl)methyl]-N-{4-[(5-thien-3-ylpyrimidin-2-yl)amino]phenyl}benzamide], the values for the IC50 against GST-Flk1 and at PDGFR were 2.52 µM and 0.26 µM, respectively.

With `CC(=O)Nc1ccc(Nc2ncc(-c3cccs3)cn2)cc1` [Example 13, N-[4-(5-thien-2-ylpyrimidin-2-ylamino]phenyl]acetamide], the IC50 against GST-Flk1 was 9.86 µM; at PDGFR, 0.44 µM.

In the case of `CC(=O)Nc1cccc(Nc2ncc(-c3cccs3)cn2)c1` [Example 14, N-{3-[(5-thien-2-ylpyrimidin-2-yl)amino]phenyl}acetamide], the IC50 against GST-Flk1 worked out at 4.17 µM; at PDGFR, 0.94 µM.

In the case of `Oc1ccc(Nc2ncc(-c3cccs3)cn2)cc1` [Example 15, 4-(5-thiophen-2-yl-pyrimidin-2-ylamino)-phenol], the IC50 is 4.61 µM at GST-Flk1 and 1.7 µM on PDGFR.

`Nc1ccc(C(=O)Nc2ccc(Nc3ncc(-c4cccs4)cn3)cc2)cc1` [Example 16, 4-amino-N-{4-[(5-thien-2-ylpyrimidin-2-yl)amino]phenyl}benzamide]: the IC50 against GST-Flk1 is greater than 20 µM; at PDGFR, 0.99 µM.

Take `O=C(O)c1cccc(Nc2ncc(-c3cccs3)cn2)c1` [Example 17, 3-[(5-thien-2-ylpyrimidin-2-yl)amino]benzoic acid]: the IC50 at GST-Flk1 was greater than 20 µM; at PDGFR, 15.2 µM.

Consider `O=C(Nc1ccccc1)c1cccc(Nc2ncc(-c3cccs3)cn2)c1` [Example 18, N-phenyl-3-[(5-thien-2-ylpyrimidin-2-yl)amino]benzamide], for which the IC50 against GST-Flk1 and on PDGFR was greater than 20 µM in each case.

For the compound `CC(=O)c1ccc(-c2cnc(Nc3cccc(N)c3)nc2)s1` [Example 19, 1-(5-{2-[(3-aminophenyl)amino]pyrimidin-5-yl}thien-2-yl)ethanone], the IC50 amounted to 8.6 µM against GST-Flk1 and 2.4 µM on PDGFR.

With `Nc1cccc(Nc2ncc(-c3csc4ccccc34)cn2)c1` [Example 20, N-[5-(1-benzothien-3-yl)pyrimidin-2-yl]benzene-1,3-diamine], the IC50 on GST-Flk1 and on PDGFR was greater than 20 µM each time.

With `O=C(CN1CCCC1CN1CCCC1)Nc1ccc(Nc2ncc(-c3ccsc3)cn2)cc1` (stereo not shown) [Example 22, 2-[2-(pyrrolidin-1-ylmethyl)pyrrolidin-1-yl]-N-{4-[(5-thien-3-ylpyrimidin-2-yl)amino]phenyl}acetamide], the IC50 amounted to 4.5 µM at GST-Flk1 and 0.41 µM at PDGFR.

As for `CN1CCN(CC(=O)Nc2ccc(Nc3ncc(-c4ccsc4)cn3)cc2)CC1` [Example 23, 2-(4-methylpiperazin-1-yl)-N-{4-[(5-thien-3-ylpyrimidin-2-yl)amino]phenyl}acetamide], the IC50 amounted to 5.1 µM against GST-Flk1 and 0.55 µM on PDGFR.

On to `O=C(CNCCN1CCOCC1)Nc1ccc(Nc2ncc(-c3ccsc3)cn2)cc1` [Example 25, 2-(2-morpholinoethylamino)-N-(4-(5-(thiophen-3-yl)pyrimidin-2-ylamino)phenyl)acetamide], for which the IC50 at GST-Flk1 came out at 5.4 µM; on PDGFR, 0.47 µM.

Consider `O=C(CN1CCOCC1)Nc1ccc(Nc2ncc(-c3ccsc3)cn2)cc1` [Example 26, 2-morpholin-4-yl-N-{4-[(5-thien-3-ylpyrimidin-2-yl)amino]phenyl}acetamide], for which the IC50 came to 5.6 µM on GST-Flk1 and 1.1 µM at PDGFR.

For the compound `CCN(CC)CC(=O)Nc1ccc(Nc2ncc(-c3ccsc3)cn2)cc1` [Example 27, N-(4-(5-(thiophen-3-yl)pyrimidin-2-ylamino)phenyl)-2-(diethylamino)acetamide], the values for the IC50 at GST-Flk1 and at PDGFR were 6 µM and 0.55 µM, respectively.

On to `O=C(CN1CCC(O)CC1)Nc1ccc(Nc2ncc(-c3ccsc3)cn2)cc1` [Example 28, 2-(4-hydroxypiperidin-1-yl)-N-{4-[(5-thien-3-ylpyrimidin-2-yl)amino]phenyl}acetamide], for which the IC50 against GST-Flk1 worked out at 4.9 µM; on PDGFR, 0.57 µM.
